Test results from the NIST ThermoML archive (doi:10.1016/j.jct.2007.11.011).

Experiment: xn = mol fraction of the nth substance listed
Conditions: Liquid

CCOS(=O)(=O)[O-].CCn1cc[n+](C)c1 [1-ethyl-3-methylimidazolium ethyl sulfate] + CO
mass density [kg/m3]
Conditions	100 kPa	2500 kPa	5000 kPa	10000 kPa	15000 kPa	20000 kPa	25000 kPa	30000 kPa	35000 kPa
323.15 K, x1 = 0.04781	–	–	–	868.74	872.87	876.82	880.61	884.24	887.77
323.15 K, x1 = 0.1026	–	–	–	942.8	946.41	949.87	953.21	956.44	959.59
323.15 K, x1 = 0.1977	–	–	1024.01	1027.14	1030.2	1033.16	1036.04	1038.84	1041.58
323.15 K, x1 = 0.2432	–	–	1052.99	1055.97	1058.89	1061.72	1064.46	1067.16	1069.79
323.15 K, x1 = 0.3026	–	–	1084.11	1086.92	1089.69	1092.38	1094.99	1097.52	1100.04
323.15 K, x1 = 0.3887	–	–	1118.22	1120.88	1123.48	1126.02	1128.5	1130.9	1133.28
323.15 K, x1 = 0.485	–	–	1146.43	1148.93	1151.4	1153.83	1156.17	1158.47	1160.75
323.15 K, x1 = 0.589	–	–	1169.35	1171.75	1174.11	1176.44	1178.7	1180.91	1183.11
323.15 K, x1 = 0.7289	–	–	1192.7	1194.99	1197.27	1199.49	1201.68	1203.82	1205.91
323.15 K, x1 = 0.8521	–	–	1207.44	1209.67	1211.88	1214.04	1216.15	1218.23	1220.28
323.15 K, x1 = 0.9397	–	–	1217.06	1219.28	1221.46	1223.61	1225.7	1227.76	1229.79
333.15 K, x1 = 0.04781	850.98	853.34	855.7	860.18	864.49	868.61	872.54	876.32	879.95
333.15 K, x1 = 0.1026	926.85	928.81	930.83	934.71	938.46	942.07	945.55	948.89	952.14
333.15 K, x1 = 0.1977	1012.95	1014.54	1016.23	1019.48	1022.66	1025.73	1028.71	1031.6	1034.42
333.15 K, x1 = 0.2432	1042.28	1043.81	1045.4	1048.48	1051.51	1054.43	1057.29	1060.06	1062.76
333.15 K, x1 = 0.3026	1073.72	1075.11	1076.58	1079.47	1082.32	1085.07	1087.76	1090.37	1092.96
333.15 K, x1 = 0.3887	1108.15	1109.48	1110.88	1113.59	1116.27	1118.87	1121.41	1123.9	1126.35
333.15 K, x1 = 0.485	1136.7	1137.95	1139.28	1141.86	1144.4	1146.86	1149.29	1151.66	1153.97
333.15 K, x1 = 0.589	1159.94	1161.11	1162.35	1164.82	1167.24	1169.62	1171.94	1174.22	1176.46
333.15 K, x1 = 0.7289	1183.49	1184.59	1185.79	1188.13	1190.47	1192.77	1194.98	1197.18	1199.35
333.15 K, x1 = 0.8521	1198.51	1199.19	1200.35	1202.62	1204.87	1207.1	1209.26	1211.4	1213.49
333.15 K, x1 = 0.9397	1207.93	1209.04	1210.2	1212.45	1214.69	1216.87	1219.03	1221.13	1223.21
